This note sets out measurements from patent publication US20110319338A1, “PEPTIDES THAT BIND EUKARYOTIC TRANSLATION INITIATION FACTOR 4E” (The Board of Regents of the University of Texas System, priority 2008, published 2011).

Square brackets hold non-standard residues; d marks the D form. Ends that are not written are not given here.

This test deals with ES-2-DualLuc cells. Description: Cell-based translation assay with bicistronic R-Luc/F-Luc reporter. Conditions: peptide 6 hours, 0.3 to 10 micromoles per liter, relative to cells without peptide. Here is the method:
FIGS. 2A-2F. Inhibition of cap-dependent translation and cell growth by TAT-4EBP fusion peptides. (FIG. 2A) Representation of the pIRES-DualLuc bicistronic construct containing Renilla Luciferase (R-Luc) and firefly luciferase (F-Luc) genes. In (FIG. 2B), R-Luc and F-Luc activities were assayed in ES-2-DualLuc cells following treatment for 24 hours with rapamycin and for 3 hours with cycloheximide with the indicated concentrations of these drugs, and expressed relative to the respective luciferase activities in cells incubated without drug. Cell viability was not affected by rapamycin and cycloheximide under these conditions. In (FIG. 2C), R-Luc and F-Luc activities were assayed in ES-2-DualLuc cells following treatment for 6 hours with the indicated concentrations of peptides, and expressed relative to the respective luciferase activities in cells incubated without peptide. Shown are results of triplicate assays performed independently two times, and the statistical significance of differences in relative R-Luc and F-Luc activities in cells treated with peptide at a concentration of 10 micromoles per liter. (FIG. 2D) Viability of OVCAR-3 cells at 3 days after addition of the indicated concentrations of peptides, expressed relative to viability of cells incubated without peptide. Shown are results of triplicate assays performed in two independent experiments, and statistical significances of differences in viability of cells treated with TAT-4EBP1-WT vs. TAT-4EBP1-MT, and of cells treated with TAT-4EBP2-WT vs. TAT-4EBP2-MT at a concentration of 10 micromoles per liter. (FIG. 2E) OVCAR-3 cells at 3 days after peptide addition (10 micromoles per liter) viewed under phase-contrast microscopy. (FIG. 2F) Flow cytometric analysis of staining of terminal deoxynucleotidyl transferase-mediated dUTP nick end labeling (TUNEL) in OVCAR-3 cells at 3 days after peptide addition (10 micromoles per liter). Cells incubated for 3 days in the absence of peptide in medium with and without serum are included as controls.
FIGS. 3A-3H. Uptake, binding and inhibitory effects of [DLys6]GnRH-4EBP fusion peptides. (FIG. 3A) Sequences of [DLys6]GnRH, and wild-type and mutant 4EBP1 peptides fused to the agonist. (FIG. 3B) Western blot of GnRH-RI levels in OVCAR-3, ES-2, MDA-MB-231, BJ, HUVEC and SKOV3 cells. (FIG. 3C) Detection of biotinylated peptides in OVCAR-3 and SKOV3 by Texas Red-conjugated streptavidin at 16 hours after peptide addition (3 micromoles per liter). In (FIGS. 3D and 3E), biotinylated peptides were incubated with OVCAR-3 cell lysate as described in FIG. 1. In (FIG. 3D), peptide was pulled down using streptavidin-agarose. Precipitates (P) and supernatants (S) were analyzed by Western blot using eIF4E antibody. In (FIG. 3E), immunoprecipitation was performed using eIF4E antibody, and Western blot performed using eIF4G antibody. (FIG. 3F) R-Luc and F-Luc activities were assayed in ES-2-DualLuc cells at 6 hours after addition of the indicated concentrations of peptides, and are expressed relative to the respective luciferase activities in cells incubated without peptide. Shown are results of triplicate assays performed independently two times, and the statistical significance of differences in relative R-Luc and F-Luc activities in cells treated with peptide at a concentration of 10 micromoles per liter (FIG. 3G) Cells of GnRH-RI-positive and -negative lines were treated with the indicated concentrations of peptides. Viability at 3 days after peptide addition is expressed relative to viability of cells incubated with no peptide. Shown are results of triplicate assays performed in two independent experiments, and statistical significances of differences in viability of cells treated with wild-type vs. mutant [DLys6]GnRH-4EBP1 peptides at a concentration of 10 micromoles per liter. (FIG. 3H) ES-2 and parental SKOV3 cells at 3 days after peptide addition (30 micromoles per liter) viewed under phase-contrast microscopy. […]

Regarding “[DLys6]GnRH: GnRH agonist with a D-amino acid substitution at position 6; GnRH-RI-targeting moiety (QHWSY[dK]LRPG; not fully specified (residue 1, C-terminus); ends and bridges not checked)”, the “cap-dependent translation (R-Luc read-out)” value is recorded as “not inhibited”.
